{"source": "patent US20260130395A1", "about": "“Water Dispersible Botanical Compositions” (Aquila Black Limited, priority 2021, published 2026)", "key": {"[1]": {"assay": "Stability of cannabinoid entourage and Vitamin E components of the powder concentrate by LCMSMS", "format": "physicochemical", "settings": "powder stored at 21-25° C.", "procedure": "At each time period, 0.05 g of powder was dissolved in 10 ml-15 of ethanol, diluted to fall within the analytical range, and injected into the LCMSMS for analysis."}, "[2]": {"assay": "Stability of cannabinoid compounds and Vitamin E components in Beverage 1 (AB White) by LCMSMS", "format": "physicochemical", "settings": "AB White stored at 8° C.", "description": "The stability of the plant-derived cannabinoid compounds and Vitamin E components of the beverage stored 8° C. and at room temperature (21-25° C.) were monitored, over a period of 570 days via Liquid Chromatography-tandem Mass Spectrometry [LCMSMS, Agilent 6590, C18, 3×50 mm, 2.7 m (Agilent InfinityLab Poroshell 120 EC-C18), Electrospray Ionization detector]. The LCMSMS was calibrated for 0-1000 ng/ml cannabinoids with the same resin material used in the preparation of the concentrates. At each time period, 100 ml of beverage was diluted with 10 ml of methanol and injected into the LCMSMS for analysis."}}, "data": [{"smiles": "CCCCCc1cc(O)c2c(c1)OC1(C)CCC3C1C2C3(C)C", "note": "(stereo not drawn) [CBL, cannabicyclol]", "values": [{"measurement": "Stability of Plant-Derived Cannabinoid Compounds in Powder Concentrate", "setting": "[1]; 0 days", "result": 0.050, "unit": "mg/g powder"}, {"measurement": "Stability of Plant-Derived Cannabinoid Compounds in Powder Concentrate", "setting": "[1]; 1 days", "result": 0.051, "unit": "mg/g powder"}, {"measurement": "Stability of Plant-Derived Cannabinoid Compounds in Powder Concentrate", "setting": "[1]; 2 days", "result": 0.049, "unit": "mg/g powder"}, {"measurement": "Stability of Plant-Derived Cannabinoid Compounds in Powder Concentrate", "setting": "[1]; 3 days", "result": 0.050, "unit": "mg/g powder"}, {"measurement": "Stability of Plant-Derived Cannabinoid Compounds in Powder Concentrate", "setting": "[1]; 5 days", "result": 0.052, "unit": "mg/g powder"}, {"measurement": "Stability of Plant-Derived Cannabinoid Compounds in Powder Concentrate", "setting": "[1]; 8 days", "result": 0.050, "unit": "mg/g powder"}, {"measurement": "Stability of Plant-Derived Cannabinoid Compounds in Powder Concentrate", "setting": "[1]; 9 days", "result": 0.050, "unit": "mg/g powder"}, {"measurement": "Stability of Plant-Derived Cannabinoid Compounds in Powder Concentrate", "setting": "[1]; 10 days", "result": 0.050, "unit": "mg/g powder"}, {"measurement": "Stability of Plant-Derived Cannabinoid Compounds in Powder Concentrate", "setting": "[1]; 11 days", "result": 0.052, "unit": "mg/g powder"}, {"measurement": "Stability of Plant-Derived Cannabinoid Compounds in Powder Concentrate", "setting": "[1]; 12 days", "result": 0.052, "unit": "mg/g powder"}, {"measurement": "Stability of Plant-Derived Cannabinoid Compounds in Powder Concentrate", "setting": "[1]; 15 days", "result": 0.048, "unit": "mg/g powder"}, {"measurement": "Stability of Plant-Derived Cannabinoid Compounds in Powder Concentrate", "setting": "[1]; 16 days", "result": 0.049, "unit": "mg/g powder"}, {"measurement": "Stability of Plant-Derived Cannabinoid Compounds in Powder Concentrate", "setting": "[1]; 17 days", "result": 0.049, "unit": "mg/g powder"}, {"measurement": "Stability of Plant-Derived Cannabinoid Compounds in Powder Concentrate", "setting": "[1]; 18 days", "result": 0.052, "unit": "mg/g powder"}, {"measurement": "Stability of Plant-Derived Cannabinoid Compounds in Powder Concentrate", "setting": "[1]; 19 days", "result": 0.052, "unit": "mg/g powder"}, {"measurement": "Stability of Plant-Derived Cannabinoid Compounds in Powder Concentrate", "setting": "[1]; 22 days", "result": 0.051, "unit": "mg/g powder"}, {"measurement": "Stability of Plant-Derived Cannabinoid Compounds in Powder Concentrate", "setting": "[1]; 23 days", "result": 0.051, "unit": "mg/g powder"}, {"measurement": "Stability of Plant-Derived Cannabinoid Compounds in Powder Concentrate", "setting": "[1]; 24 days", "result": 0.050, "unit": "mg/g powder"}, {"measurement": "Stability of Plant-Derived Cannabinoid Compounds in Powder Concentrate", "setting": "[1]; 25 days", "result": 0.050, "unit": "mg/g powder"}, {"measurement": "Stability of Plant-Derived Cannabinoid Compounds in Powder Concentrate", "setting": "[1]; 26 days", "result": 0.051, "unit": "mg/g powder"}, {"measurement": "Stability of Plant-Derived Cannabinoid Compounds in Powder Concentrate", "setting": "[1]; 29 days", "result": 0.048, "unit": "mg/g powder"}, {"measurement": "Stability of Plant-Derived Cannabinoid Compounds in Powder Concentrate", "setting": "[1]; 30 days", "result": 0.051, "unit": "mg/g powder"}, {"measurement": "Stability of Plant-Derived Cannabinoid Compounds in Powder Concentrate", "setting": "[1]; 60 days", "result": 0.050, "unit": "mg/g powder"}, {"measurement": "Stability of Plant-Derived Cannabinoid Compounds in Powder Concentrate", "setting": "[1]; 90 days", "result": 0.050, "unit": "mg/g powder"}, {"measurement": "Stability of Plant-Derived Cannabinoid Compounds in Powder Concentrate", "setting": "[1]; 120 days", "result": 0.048, "unit": "mg/g powder"}, {"measurement": "Stability of Plant-Derived Cannabinoid Compounds in Powder Concentrate", "setting": "[1]; 150 days", "result": 0.050, "unit": "mg/g powder"}, {"measurement": "Stability of Plant-Derived Cannabinoid Compounds in Powder Concentrate", "setting": "[1]; 180 days", "result": 0.049, "unit": "mg/g powder"}, {"measurement": "Stability of Plant-Derived Cannabinoid Compounds in Powder Concentrate", "setting": "[1]; 210 days", "result": 0.052, "unit": "mg/g powder"}, {"measurement": "Stability of Plant-Derived Cannabinoid Compounds in Powder Concentrate", "setting": "[1]; 240 days", "result": 0.049, "unit": "mg/g powder"}, {"measurement": "Stability of Plant-Derived Cannabinoid Compounds in Powder Concentrate", "setting": "[1]; 270 days", "result": 0.051, "unit": "mg/g powder"}, {"measurement": "Stability of Plant-Derived Cannabinoid Compounds in Powder Concentrate", "setting": "[1]; 300 days", "result": 0.050, "unit": "mg/g powder"}, {"measurement": "Stability of Plant-Derived Cannabinoid Compounds in Powder Concentrate", "setting": "[1]; 330 days", "result": 0.049, "unit": "mg/g powder"}, {"measurement": "Stability of Plant-Derived Cannabinoid Compounds in Powder Concentrate", "setting": "[1]; 360 days", "result": 0.050, "unit": "mg/g powder"}, {"measurement": "Stability of Plant-Derived Cannabinoid Compounds in Powder Concentrate", "setting": "[1]; 390 days", "result": 0.052, "unit": "mg/g powder"}, {"measurement": "Stability of Plant-Derived Cannabinoid Compounds in Powder Concentrate", "setting": "[1]; 420 days", "result": 0.050, "unit": "mg/g powder"}, {"measurement": "Stability of Plant-Derived Cannabinoid Compounds in Powder Concentrate", "setting": "[1]; 450 days", "result": 0.052, "unit": "mg/g powder"}, {"measurement": "Stability of Plant-Derived Cannabinoid Compounds in Powder Concentrate", "setting": "[1]; 480 days", "result": 0.051, "unit": "mg/g powder"}, {"measurement": "Stability of Plant-Derived Cannabinoid Compounds in Powder Concentrate", "setting": "[1]; 510 days", "result": 0.050, "unit": "mg/g powder"}, {"measurement": "Stability of Plant-Derived Cannabinoid Compounds in Powder Concentrate", "setting": "[1]; 540 days", "result": 0.048, "unit": "mg/g powder"}, {"measurement": "Stability of Plant-Derived Cannabinoid Compounds in Powder Concentrate", "setting": "[1]; 570 days", "result": 0.050, "unit": "mg/g powder"}, {"measurement": "Stability of Plant-Derived Cannabinoid Compounds in AB White, 8° C.", "setting": "[2]; 0 days", "result": 0.550, "unit": "µg/mL"}, {"measurement": "Stability of Plant-Derived Cannabinoid Compounds in AB White, 8° C.", "setting": "[2]; 1 days", "result": 0.541, "unit": "µg/mL"}, {"measurement": "Stability of Plant-Derived Cannabinoid Compounds in AB White, 8° C.", "setting": "[2]; 2 days", "result": 0.542, "unit": "µg/mL"}, {"measurement": "Stability of Plant-Derived Cannabinoid Compounds in AB White, 8° C.", "setting": "[2]; 3 days", "result": 0.553, "unit": "µg/mL"}, {"measurement": "Stability of Plant-Derived Cannabinoid Compounds in AB White, 8° C.", "setting": "[2]; 5 days", "result": 0.552, "unit": "µg/mL"}, {"measurement": "Stability of Plant-Derived Cannabinoid Compounds in AB White, 8° C.", "setting": "[2]; 8 days", "result": 0.537, "unit": "µg/mL"}, {"measurement": "Stability of Plant-Derived Cannabinoid Compounds in AB White, 8° C.", "setting": "[2]; 9 days", "result": 0.535, "unit": "µg/mL"}, {"measurement": "Stability of Plant-Derived Cannabinoid Compounds in AB White, 8° C.", "setting": "[2]; 10 days", "result": 0.544, "unit": "µg/mL"}, {"measurement": "Stability of Plant-Derived Cannabinoid Compounds in AB White, 8° C.", "setting": "[2]; 11 days", "result": 0.544, "unit": "µg/mL"}, {"measurement": "Stability of Plant-Derived Cannabinoid Compounds in AB White, 8° C.", "setting": "[2]; 12 days", "result": 0.553, "unit": "µg/mL"}, {"measurement": "Stability of Plant-Derived Cannabinoid Compounds in AB White, 8° C.", "setting": "[2]; 15 days", "result": 0.534, "unit": "µg/mL"}, {"measurement": "Stability of Plant-Derived Cannabinoid Compounds in AB White, 8° C.", "setting": "[2]; 16 days", "result": 0.546, "unit": "µg/mL"}, {"measurement": "Stability of Plant-Derived Cannabinoid Compounds in AB White, 8° C.", "setting": "[2]; 17 days", "result": 0.540, "unit": "µg/mL"}, {"measurement": "Stability of Plant-Derived Cannabinoid Compounds in AB White, 8° C.", "setting": "[2]; 18 days", "result": 0.536, "unit": "µg/mL"}, {"measurement": "Stability of Plant-Derived Cannabinoid Compounds in AB White, 8° C.", "setting": "[2]; 19 days", "result": 0.537, "unit": "µg/mL"}, {"measurement": "Stability of Plant-Derived Cannabinoid Compounds in AB White, 8° C.", "setting": "[2]; 22 days", "result": 0.555, "unit": "µg/mL"}, {"measurement": "Stability of Plant-Derived Cannabinoid Compounds in AB White, 8° C.", "setting": "[2]; 23 days", "result": 0.545, "unit": "µg/mL"}, {"measurement": "Stability of Plant-Derived Cannabinoid Compounds in AB White, 8° C.", "setting": "[2]; 24 days", "result": 0.548, "unit": "µg/mL"}, {"measurement": "Stability of Plant-Derived Cannabinoid Compounds in AB White, 8° C.", "setting": "[2]; 25 days", "result": 0.540, "unit": "µg/mL"}, {"measurement": "Stability of Plant-Derived Cannabinoid Compounds in AB White, 8° C.", "setting": "[2]; 26 days", "result": 0.534, "unit": "µg/mL"}]}]}
